Data as given in patent publication US20050203191A1, “1-Aminocyclohexane derivatives for the treatment of agitation and other behavioral disorders, especially those associated with alzheimer's disease” (priority 2004, published 2005).

System: moderate to severe Alzheimer's patients treated with ongoing donepezil therapy
Test: MD-02 (Therapy Example 2): 24-week double-blind placebo-controlled trial of memantine added to ongoing donepezil
Assay type: in vivo, human
Conditions: MD-02, on donepezil, week 24, ITT LOCF
Method: A 24 week, double-blind, placebo-controlled trial was conducted in moderate to severe Alzheimer's patients (N=404) treated with ongoing donepezil therapy and randomized to memantine or placebo. Behavioral symptoms were assessed using the NPI administered at baseline, Week 12 and the final visit (Week 24). The trial already had established benefits of memantine on functional, cognitive, and global measures. The statistical analysis was based on the ITT population using the last observation carried forward (LOCF) and observed case (OC) approaches.
This study enrolled four hundred and four patients diagnosed with probable AD according to the National Institute of Neurological and Communicative Disorders and Stroke—Alzheimer's Disease and Related Disorders Association (NINCDS-ADRDA) criteria with moderate to severe stages of illness. Inclusion criteria were as follows: Mini-Mental State Examination (MMSE) score of 5-14 at screening and at baseline; minimum age of 50 years; a recent MRI or CT scan consistent with a diagnosis of probable AD; on AChEI therapy, which was defined by the protocol to be donepezil, for more than 6 months prior to entrance into the trial and at a stable dose (5-10 mg/day) for at least 3 months prior to entrance in the trial; a knowledgeable and reliable caregiver to accompany the patient to research visits and oversee the administration of the investigational agent during the trial; residence in the community; ambulatory or ambulatory-aided (i.e. walker or cane) ability; and stable medical condition.
Patients were excluded for clinically significant reasons; B12 or folate deficiency; active pulmonary, gastrointestinal, renal, hepatic, endocrine, or cardiovascular disease; other psychiatric or central nervous system disorders; CT or MRI evidence of clinically significant central nervous system disorders other than probable AD; dementia complicated by other organic disease; or a modified Hachinski Ischemia Score30 greater than 4 at screening.
This was a prospective, randomized, placebo-controlled, parallel-arm, fixed-dose trial in which participants were assigned to double-blind treatment for 24 weeks with a 1-2 week single-blind, placebo lead-in phase prior to randomization. The initial dose of memantine was 5 mg/day with escalation to 20 mg/day over the first 3 weeks of double-blind treatment. All patients were to maintain their protocol-defined AChEI therapy at entry dose for the duration of the study. From week 3 to the end of week 8 of double-blind treatment, transient dosage adjustments for memantine treatment were permitted for patients experiencing dose-limiting adverse events. All memantine-treated patients were required to receive the target dose of 20 mg/day by the end of week 8, and patients not tolerating the target dose at that time were discontinued.
Patients were randomly allocated in permuted blocks of four to one of the two treatment. Blinded study medication was supplied to each study site for dispensation in blister packs at each visit. No unblinding occurred during the trial. Compliance monitoring was conducted via pill counts, and over 95% of both treatment groups had >75% compliance (95% for the placebo/AChEI treatment group and 96.5% for the memantine/AChEI treatment group).
Cognitive, functional, global, and behavioral outcome measures were obtained at screening, baseline, and at the end of weeks 4, 8, 12, 18, and 24. […] The efficacy parameters were the change from baseline on the SIB, a modified ADCS-ADL Inventory score at week 24, and the NPI. The 12-item version of the NPI was used here, with a total score ranging from 0-144. Higher scores reflect greater symptomatology. The NPI was assessed at baseline, at the end of week 12, and at the final visit.
Three populations were considered in the statistical analyses. […]

[1] = NPI total score ≧=75% (top quartile)
[2] = antipsychotics usage “YES” (N = n)
[3] = antipsychotics usage “YES” (N = y)
[4] = baseline NPI agitation score <4
[5] = baseline NPI agitation score ≧=4

CC12CC3CC(C)(C1)CC(N)(C3)C2 [memantine, 1-amino-3,5-dimethyl adamantane]
ADCS-ADL (change) LS Mean Diff., MEM v. PLA (NPI total score <75%): 1.17
ADCS-ADL (change) mean (NPI total score <75%): −1.6
CIBIC-PLUS Raw Mean Diff., MEM v. PLA (NPI total score <75%): −0.2
CIBIC-PLUS mean (NPI total score <75%): 4.4
SIB (change) LS Mean Diff., MEM v. PLA (NPI total score <75%): 2.5
SIB (change) mean (NPI total score <75%): 0.9
ADCS-ADL (change) LS Mean Diff., MEM v. PLA [1]: 1.73
ADCS-ADL (change) mean [1]: −2.6
CIBIC-PLUS Raw Mean Diff., MEM v. PLA [1]: −0.3
CIBIC-PLUS mean [1]: 4.4
SIB (change) LS Mean Diff., MEM v. PLA [1]: 6.1
SIB (change) mean [1]: −1.4
ADCS-ADL (change) LS Mean Diff., MEM v. PLA (NPI total score ≧=75% (top quartile), listed as MEM): −1.73
ADCS-ADL (change) LS Mean Diff., MEM v. PLA [2]: 0.9
ADCS-ADL (change) mean [2]: −1.8
CIBIC-PLUS Raw Mean Diff., MEM v. PLA [2]: −0.08
CIBIC-PLUS mean [2]: 4.45
SIB (change) LS Mean Diff., MEM v. PLA [2]: 1.7
SIB (change) mean [2]: 0.3
ADCS-ADL (change) LS Mean Diff., MEM v. PLA [3]: 3.6
ADCS-ADL (change) mean [3]: −2.1
CIBIC-PLUS Raw Mean Diff., MEM v. PLA [3]: −1.18
CIBIC-PLUS mean [3]: 4.17
SIB (change) LS Mean Diff., MEM v. PLA [3]: 12.4
SIB (change) mean [3]: 5.2
ADCS-ADL (change) LS Mean Diff., MEM v. PLA [4]: 1.2
ADCS-ADL (change) mean [4]: −1.8
CIBIC-PLUS Raw Mean Diff., MEM v. PLA [4]: −0.3
CIBIC-PLUS mean [4]: 4.4
SIB (change) LS Mean Diff., MEM v. PLA [4]: 3.6
SIB (change) mean [4]: 1.0
SIB (change) LS Mean Diff., MEM v. PLA (baseline NPI agitation score <4, listed as MEM): 3.4
ADCS-ADL (change) LS Mean Diff., MEM v. PLA [5]: 2.1
ADCS-ADL (change) mean [5]: −2.0
CIBIC-PLUS Raw Mean Diff., MEM v. PLA [5]: −0.1
SIB (change) LS Mean Diff., MEM v. PLA [5]: 3.8
SIB (change) mean [5]: 1.1
ADCS-ADL (change) LS mean (overall): −2.00
CIBIC-PLUS LS mean (overall): 4.41
SIB (change) LS mean (overall): 0.90
ADCS-ADL (change) LS Mean Diff., MEM v. PLA (overall, listed as MEM): −1.40
CIBIC-PLUS Raw Mean Diff., MEM v. PLA (overall, listed as MEM): −0.25
SIB (change) LS Mean Diff., MEM v. PLA (overall, listed as MEM): −3.40
